Data taken from patent US20070093469A1, “Substituted azetidine compounds as cyclooxygenase-1-cyclooxygenase-2 inhibitors, and their preparation and use as medicaments” (LABORATORIOS DEL DR. ESTEVE S.A, priority 2004, published 2007).

Experiments:
[1] = molecular target: T1, Cox-1 (Homo sapiens, UniProt P23219); assay: Cox-1 activity in human whole blood (TXB2); type: cell-based; conditions: read-out: hWB inhibition COX-1 IC50
T1 construct: from tissue; host or cells: fresh human whole blood
Protocol: II. Determination of Cox-1- and Cox-2-Activity in Human Whole Blood
The Cox-1- and Cox-2-activity in human whole blood is determined according to a modification of the method described in the publication of C. Brideau et al., “A human whole blood assay for clinical evaluation of biochemical efficacy of cyclooxygenase inhibitors”, Inflamm Res 1996; 45: 68-74. The respective part of the description is hereby incorporated by reference and forms part of the present disclosure.
For Cox-1 activity determination, fresh human blood is distributed in a volume of 0.5 ml to silicone Eppendorf tubes, into which 2 μl of the compound to be tested or dimethylsulfoxide (DMSO) at a final concentration of 0.4% (volume/volume). The tubes are inverted for homogenization and incubated for 1 hour at 37° C. under slight stirring. Afterwards they are centrifuged for 15 min at 10500 g and 100 μl of serum is collected. Proteins are precipitated by the addition of 400 μl of methanol to each tube, tubes were centrifuged for 10 minutes at 5000 g and 300 μl of supernatant is aspirated and then dried under nitrogen atmosphere.
Tromboxane B2 (TXB2) concentration is quantified using an assay kit (Caymann Chemical, Ann Arbor, Mich., U.S.A., Catalogue number 519031) after reconstitution into 300 μl assay buffer supplied in the assay kit.

[2] = test system: PGE2 production in rat gastric mucosa; assay: PGE2 production in rat gastric mucosa; type: in vivo; conditions: rats, oral route, read-out: PGE2 gastric mucose ED50
Protocol: VI: PGE2 Production in Rat Inflammatory Exudate and Gastric Mucosa
The PGE2 production in rat inflammatory exudate and gastric mucosa is carried out as described in the publication of O Tofanetti et al., “Effect of nimesulide on cyclo-oxygenase activity in rat gastric mucosa and inflammatory exudate”, Med Sci Res 17, 745-746 (1989). The respective part of the description is hereby incorporated by reference and forms part of the present disclosure.
For this text 6 male wistar rats (Interfauna-St Feliú de Codines, Barcelona) of approximately 200 g (each approximately 6 weeks of age) are used. The compounds to be tested are administered via oral route in gum Arabic at 5% (weight/volume) at a rate of 10 ml/kg.
One hour after administration of the compounds and under halothane anaesthesia, each rat is implanted subcutaneously in the interescapular area a 40×15×5 mm polyester sponge, soaked in a 0.5% suspension of carrageenan. Rats are sacrificed 6 hours after the implant, the sponges are removed and squeezed. The exudates are collected and centrifuged at 6000×G for 15 minutes.
The rats's stomachs are removed and the gastric mucosa is detached from the underlying layers and by means of a 10 mm diameter die, mucosa samples from an area between the gastric corpus and pyloric antrum are taken. The mucosal PGE2 is extracted. PGE2 concentrations from the inflammatory exudates and the gastric mucosa are determined by means of inmmunoassay reagents of Cayman Chemical kit, Ann Arbor, Mich., U.S.A. (Catalogue number: 514010) according to the manufacturer's instructions.

[3] = test system: rats; assay: Analgesia test in rats (carrageenan, thermal stimulus); type: in vivo; conditions: Rattus norvegicus, oral route, 2 hours after administration, read-out: ED50 analgesic activity
Protocol: III: Analgesia Test in Rats
The inventive compounds are tested for analgesic activity as described above is carried out as described in the publication of K. Hargreaves et al., Pain, 32, 77-88, (1988). The respective part of the description is hereby incorporated by reference and forms part of the disclosure.
The rats are transferred to the experimentation laboratory, where they remain in groups of 5, in makrolon cages with a barred floor to avoid coprophagy. At the beginning of the experiment, water and food were removed, and animals were adequately weighed and marked.
Each rat receives via subplantar injection 0.1 ml of sterile saline solution into the left hind paw, followed by 0.1 ml of a 2% (weight/volume) carrageenan suspension in sterile saline solution into the right hind paw.
Two hours after the subplantar injections of carrageenan and vehicle, each rat receives by oral route the compounds to be tested, suspended in 5% (weight/volume) gum arabic, administered at 10 ml per kg of body weight. Two hours after the administration of the compounds to be tested, the values for analgesic activity are determined. To this purpose, the rats are transferred to the methacrylate chambers of an analgesimeter provided with a glass floor. Once the acclimatisation period in the chambers is over (i.e. after 5 minutes) an infra-red beam lamp capable of producing a thermal stimulus, is placed below the rat's paws.
The thermal stimulus, previously calibrated at 10 Amperes, is applied to each of the hind paws with at least 1 minute intervals. The response of the rats to pain consists of raising the paw, thus avoiding contact with the floor. […] The rats are tested once only to avoid possible learning behaviour.

[4] = molecular target: T2, Cox-2 enzyme (Ovis aries, UniProt P79208); assay: Cox-1/Cox-2 enzyme assay (Cox-2); type: biochemical; conditions: for IC50: enzyme assay
T2 construct: purchased Cayman Chemical 60120
T2 sequence (P79208 17-603): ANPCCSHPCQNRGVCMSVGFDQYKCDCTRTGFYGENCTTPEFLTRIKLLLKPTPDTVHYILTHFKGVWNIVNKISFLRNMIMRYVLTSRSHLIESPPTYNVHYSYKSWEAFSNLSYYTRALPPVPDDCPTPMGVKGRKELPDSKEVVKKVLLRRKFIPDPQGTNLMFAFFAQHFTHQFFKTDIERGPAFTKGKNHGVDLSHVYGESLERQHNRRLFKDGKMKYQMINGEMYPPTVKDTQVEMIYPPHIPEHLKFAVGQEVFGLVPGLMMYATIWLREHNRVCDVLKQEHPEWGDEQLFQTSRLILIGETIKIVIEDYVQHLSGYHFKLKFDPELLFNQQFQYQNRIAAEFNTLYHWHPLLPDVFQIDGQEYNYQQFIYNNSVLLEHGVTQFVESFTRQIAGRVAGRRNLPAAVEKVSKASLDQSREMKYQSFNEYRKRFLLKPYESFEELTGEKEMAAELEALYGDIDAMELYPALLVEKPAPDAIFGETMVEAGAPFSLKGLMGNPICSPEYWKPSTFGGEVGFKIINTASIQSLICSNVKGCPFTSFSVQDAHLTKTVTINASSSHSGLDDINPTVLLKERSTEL
Protocol: I. Cox-1/Cox-2 Enzyme Assay:
The Cox-1/Cox-2 enzyme assay for the inventive azetidine compounds is carried out according to the following description:
Immediately after the addition of the substrate, the slope corresponding to the optical density increase at 480 nm is recorded for 1 minute. The reaction is monitored with a Hewlett-Packard 8452A spectrophotometer.

T1 sequence (P23219 24-599): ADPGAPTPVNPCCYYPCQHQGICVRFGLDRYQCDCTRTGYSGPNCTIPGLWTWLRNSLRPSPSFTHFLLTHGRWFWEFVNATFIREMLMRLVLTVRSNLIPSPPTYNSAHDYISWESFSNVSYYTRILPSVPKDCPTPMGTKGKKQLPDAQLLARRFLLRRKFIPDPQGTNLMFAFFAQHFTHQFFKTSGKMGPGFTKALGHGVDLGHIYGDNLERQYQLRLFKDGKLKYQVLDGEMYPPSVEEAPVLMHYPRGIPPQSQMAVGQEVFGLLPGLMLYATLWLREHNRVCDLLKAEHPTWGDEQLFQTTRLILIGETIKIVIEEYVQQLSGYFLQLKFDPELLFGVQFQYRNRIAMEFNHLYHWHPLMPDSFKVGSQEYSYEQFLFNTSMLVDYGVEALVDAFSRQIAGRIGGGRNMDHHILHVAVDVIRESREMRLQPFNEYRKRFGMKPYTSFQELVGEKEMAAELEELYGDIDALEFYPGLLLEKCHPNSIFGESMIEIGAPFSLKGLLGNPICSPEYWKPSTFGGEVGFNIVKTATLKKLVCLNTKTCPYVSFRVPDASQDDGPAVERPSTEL

| Compound | melting point [°C] | IC50 [1] [nM] | ED50 [2] [mg/kg] | ED50 [3] [mg/kg] | IC50 [4] [nM] | inhibition at 50 µM ([4]; read-out: % inhibition 5 × 10^−5 M COX-2) [%] |
| --- | --- | --- | --- | --- | --- | --- |
| CC(C)(C)c1cc(C(=O)N2CC(O)C2)cc(C(C)(C)C)c1 [Example 2, (3,5-di-tert-butyl-phenyly)-(3-hydroxy-azetidin-1-yl)-methanone] | 146 to 149 | 500 | 3.7 | 1.65 | 1800 | 78 |
| CC1C(O)CN1C(=O)c1cc(C(C)(C)C)c(O)c(C(C)(C)C)c1 (stereo not shown) [Example 4, (3,5-di-tert-butyl-4-hydroxy-phenyl)-(3-hydroxy-2-methyl-azetidin-1-yl)-methanone] | 162 to 166 | 500 | 1 | 0.7 | 3750 |  |
| CC(C)(C)c1cc(C(=O)N2CC(O)C2)cc2c1OCC2(C)C [Example 14, (7-tert-butyl-3,3-dimethyl-2,3-dihydro-benzofuran-5-yl)-(3-hydroxy-azetidin-1-yl)-methanone] | 144 to 148 | 50 | 2.7 | 3 | 600 |  |
